Assay results taken from US8192717B2, “Composition for diagnosing amyloid-related diseases” (Nagasaki University, priority 2004, dated 2012).

Experiment: Radioactivity distribution in mouse body after intravenous administration of radioiodine labeled forms
Settings: mouse, intravenous administration, mean (SD) of 3 to 5 mice
Procedure: Thereafter, 100 μl (0.5 to 1 μCi) of each labeled form was intravenously administered to each group consisting of three to five 5-week-old ddY male mice (25 to 30 g). 2, 10, 30, and 60 minutes after the intravenous administration, such mice were decapitated, and blood was collected. Thereafter, organs were excised, and the weight and radioactivity thereof were then measured.

Row | Structure (SMILES) | Distribution of radioactivity, Blood (2 min after administration) | Distribution of radioactivity, Blood (10 min after administration) | Distribution of radioactivity, Blood (30 min after administration) | Distribution of radioactivity, Blood (60 min after administration) | Distribution of radioactivity, Brain (2 min after administration) | Distribution of radioactivity, Brain (10 min after administration) | Distribution of radioactivity, Brain (30 min after administration) | Distribution of radioactivity, Brain (60 min after administration) | Distribution of radioactivity, Heart (2 min after administration) | Distribution of radioactivity, Heart (10 min after administration) | Distribution of radioactivity, Heart (30 min after administration) | Distribution of radioactivity, Heart (60 min after administration) | Distribution of radioactivity, Intestine (2 min after administration) | Distribution of radioactivity, Intestine (10 min after administration) | Distribution of radioactivity, Intestine (30 min after administration) | Distribution of radioactivity, Intestine (60 min after administration) | Distribution of radioactivity, Kidney (2 min after administration) | Distribution of radioactivity, Kidney (10 min after administration) | Distribution of radioactivity, Kidney (30 min after administration) | Distribution of radioactivity, Kidney (60 min after administration) | further results
1 | O=c1cc(-c2ccc(O)cc2)oc2ccc([125I])cc12 [[125I]Compound 20] | 2.77 (0.43) % ID/g | 1.58 (0.18) % ID/g | 0.66 (0.03) % ID/g | 0.20 (0.02) % ID/g | 3.31 (0.32) % ID/g | 1.90 (0.07) % ID/g | 0.52 (0.03) % ID/g | 0.08 (0.02) % ID/g | 5.51 (0.71) % ID/g | 1.60 (0.18) % ID/g | 0.53 (0.04) % ID/g | 0.12 (0.02) % ID/g | 3.12 (0.37) % ID/g | 11.26 (0.63) % ID/g | 22.01 (1.34) % ID/g | 27.28 (0.48) % ID/g | 14.79 (2.59) % ID/g | 15.11 (2.00) % ID/g | 6.45 (0.84) % ID/g | 1.66 (0.62) % ID/g | Distribution of radioactivity, Liver (2 min after administration): 9.77 (1.89) % ID/g; Distribution of radioactivity, Liver (10 min after administration): 8.24 (0.50) % ID/g; Distribution of radioactivity, Liver (30 min after administration): 6.80 (0.86) % ID/g; Distribution of radioactivity, Liver (60 min after administration): 4.78 (1.09) % ID/g; Distribution of radioactivity, Spleen (2 min after administration): 3.92 (1.18) % ID/g; Distribution of radioactivity, Spleen (10 min after administration): 1.55 (0.15) % ID/g; Distribution of radioactivity, Spleen (30 min after administration): 0.56 (0.13) % ID/g; Distribution of radioactivity, Spleen (60 min after administration): 0.17 (0.06) % ID/g
2 | COc1cc(/C=C/C(=O)c2cccc([125I])c2)ccc1O [[125I]Compound 31] | 4.90 (0.52) % ID/g | 3.80 (0.91) % ID/g | 1.84 (0.31) % ID/g | 1.15 (0.44) % ID/g | 2.52 (0.20) % ID/g | 1.28 (0.17) % ID/g | 0.40 (0.11) % ID/g | 0.35 (0.05) % ID/g | 5.58 (0.99) % ID/g | 2.88 (1.02) % ID/g | 1.44 (0.34) % ID/g | 1.38 (0.34) % ID/g | 2.50 (0.31) % ID/g | 10.52 (1.82) % ID/g | 20.60 (6.13) % ID/g | 29.31 (3.26) % ID/g | 11.99 (3.60) % ID/g | 9.16 (2.76) % ID/g | 5.00 (2.27) % ID/g | 4.31 (0.81) % ID/g | Distribution of radioactivity, Liver (2 min after administration): 15.71 (1.27) % ID/g; Distribution of radioactivity, Liver (10 min after administration): 18.55 (2.68) % ID/g; Distribution of radioactivity, Liver (30 min after administration): 7.67 (1.68) % ID/g; Distribution of radioactivity, Liver (60 min after administration): 4.05 (0.61) % ID/g; Distribution of radioactivity, Spleen (2 min after administration): 2.57 (0.42) % ID/g; Distribution of radioactivity, Spleen (10 min after administration): 1.80 (0.30) % ID/g; Distribution of radioactivity, Spleen (30 min after administration): 1.03 (0.04) % ID/g; Distribution of radioactivity, Spleen (60 min after administration): 0.88 (0.15) % ID/g
3 | Nc1ccc(C=Cc2cc(=O)c3cc([125I])ccc3o2)cc1 [[125I]Compound 46] | 2.34 (0.16) % ID/g | 2.44 (0.19) % ID/g | 2.56 (0.64) % ID/g | 2.27 (0.47) % ID/g | 4.88 (0.47) % ID/g | 4.40 (0.44) % ID/g | 2.78 (0.72) % ID/g | 1.62 (0.40) % ID/g | 8.40 (0.47) % ID/g | 3.78 (0.35) % ID/g | 2.43 (0.70) % ID/g | 1.64 (0.29) % ID/g | 2.84 (0.18) % ID/g | 5.51 (0.55) % ID/g | 11.71 (1.27) % ID/g | 16.08 (2.44) % ID/g | 11.94 (1.49) % ID/g | 6.99 (0.91) % ID/g | 4.91 (1.07) % ID/g | 3.76 (0.91) % ID/g | Distribution of radioactivity, Liver (2 min after administration): 13.23 (1.65) % ID/g; Distribution of radioactivity, Liver (10 min after administration): 14.49 (1.10) % ID/g; Distribution of radioactivity, Liver (30 min after administration): 10.27 (1.84) % ID/g; Distribution of radioactivity, Liver (60 min after administration): 8.16 (1.33) % ID/g; Distribution of radioactivity, Spleen (2 min after administration): 4.23 (0.62) % ID/g; Distribution of radioactivity, Spleen (10 min after administration): 3.64 (0.38) % ID/g; Distribution of radioactivity, Spleen (30 min after administration): 2.92 (0.73) % ID/g; Distribution of radioactivity, Spleen (60 min after administration): 2.16 (0.85) % ID/g
